pIC50: −log10 of the molar value.
Columns and labels:
Leishmania donovani [1] = experiment: Antileishmanial activity against Leishmania donovani amastigotes after 48 hrs by MTT assay; format: functional, organism-based
PBMC [2] = experiment: Cytotoxicity against human PBMC at 2 times IC50 concentration after 48 hrs by MTT assay; format: cell-based
PBMC [3] = experiment: Cytotoxicity against human PBMC at IC50 concentration after 48 hrs by MTT assay; format: cell-based
Leishmania donovani [4] = experiment: Antileishmanial activity against Leishmania donovani promastigotes after 48 hrs by MTT assay; format: functional, organism-based
Leishmania donovani [5] = experiment: Antileishmanial activity against Leishmania donovani infected in golden Syrian hamsters assessed as reduction of spleen weight at 250 mg/kg, ip administered 20 days after infection for 10 days relative to control; format: functional; parameters: scale not given: the % may be the effect or the level left; details: route intraperitoneal
Leishmania donovani [6] = experiment: Antileishmanial activity against Leishmania donovani infected in golden Syrian hamsters assessed as reduction of spleen parasitic burden at 250 mg/kg, ip administered 20 days after infection for 10 days relative to control; format: functional; parameters: scale not given: the % may be the effect or the level left; details: route intraperitoneal
Leishmania donovani [7] = experiment: Antileishmanial activity against Leishmania donovani infected in golden Syrian hamsters assessed as reduction of spleen weight at 250 mg/kg, ip administered 20 days after infection for 10 days (reference value: 503 +/- 34 mg); format: functional; details: route intraperitoneal
Leishmania donovani [8] = experiment: Antileishmanial activity against Leishmania donovani infected in golden Syrian hamsters assessed as reduction of spleen weight at 12.5 mg/kg, po administered 20 days after infection for 10 days (reference value: 503 +/- 34 mg); format: functional
Leishmania donovani [9] = experiment: Antileishmanial activity against Leishmania donovani infected in golden Syrian hamsters assessed as reduction of spleen parasitic burden at 12.5 mg/kg, po administered 20 days after infection for 10 days relative to control; format: functional; parameters: scale not given: the % may be the effect or the level left
Leishmania donovani [10] = experiment: Antileishmanial activity against Leishmania donovani infected in golden Syrian hamsters assessed as reduction of spleen weight at 12.5 mg/kg, po administered 20 days after infection for 10 days relative to control; format: functional; parameters: scale not given: the % may be the effect or the level left

SMILES	pIC50 (Leishmania donovani [1])	Activity (PBMC [2])	Activity (PBMC [3])	pIC50 (Leishmania donovani [4])	Activity (Leishmania donovani [5])	Activity (Leishmania donovani [6])	Activity (Leishmania donovani [7])	Activity (Leishmania donovani [8])	Activity (Leishmania donovani [9])	Activity (Leishmania donovani [10])
COC(=O)[C@@H](N)CCSC	2.72	7.3%	1.5%	2.71	–	–	–	–	–	–
COC(=O)C(CCSC)NC(=O)/C=C/C=C/c1ccc2c(c1)OCO2 (stereo unspecified)	3.77	7.5%	4%	3.08	–	–	–	–	–	–
COC(=O)C(Cc1ccc(O)cc1)NC(=O)CCCCc1ccc2c(c1)OCO2 (stereo unspecified)	3.69	7.6%	5%	3.27	–	–	–	–	–	–
COC(=O)C(NC(=O)CCCCc1ccc2c(c1)OCO2)C(C)C (stereo unspecified)	3.62	7.7%	4.5%	3.14	–	–	–	–	–	–
COC(=O)C(CCSC)NC(=O)CCCCc1ccc2c(c1)OCO2 (stereo unspecified)	3.66	5%	3%	3.22	–	–	–	–	–	–
COC(=O)C(Cc1c[nH]c2ccccc12)NC(=O)CCCCc1ccc2c(c1)OCO2 (stereo unspecified)	3.75	5%	2.5%	3.33	–	–	–	–	–	–
COC(=O)[C@@H](N)C(C)C	2.75	6%	4%	2.63	–	–	–	–	–	–
COC(=O)C(Cc1ccccc1)NC(=O)/C=C/C=C/c1ccc2c(c1)OCO2 (stereo unspecified)	3.71	7%	4%	3.08	30%	35%	353 mg	–	–	–
COC(=O)C(Cc1ccc(O)cc1)NC(=O)/C=C/C=C/c1ccc2c(c1)OCO2 (stereo unspecified)	3.68	6%	3.5%	3.10	–	–	–	–	–	–
COC(=O)C(NC(=O)/C=C/C=C/c1ccc2c(c1)OCO2)C(C)C (stereo unspecified)	4.12	3.8%	3%	3.06	–	24%	516 mg	–	–	–
COC(=O)C(Cc1c[nH]c2ccccc12)NC(=O)/C=C/C=C/c1ccc2c(c1)OCO2 (stereo unspecified)	3.92	5.2%	3%	3.07	–	–	–	–	–	–
O=C(/C=C/C=C/c1ccc2c(c1)OCO2)NC(Cc1ccccc1)C(=O)O (stereo unspecified)	3.59	8.5%	1.2%	3.03	–	–	–	–	–	–
O=C(/C=C/C=C/c1ccc2c(c1)OCO2)NC(Cc1ccc(O)cc1)C(=O)O (stereo unspecified)	3.60	6%	4%	3.12	–	–	–	–	–	–
CC(C)C(NC(=O)/C=C/C=C/c1ccc2c(c1)OCO2)C(=O)O (stereo unspecified)	3.51	9%	5.5%	2.99	–	–	–	–	–	–
CSCCC(NC(=O)/C=C/C=C/c1ccc2c(c1)OCO2)C(=O)O (stereo unspecified)	3.63	7.7%	1.8%	2.88	–	–	–	–	–	–
O=C(/C=C/C=C/c1ccc2c(c1)OCO2)NC(Cc1c[nH]c2ccccc12)C(=O)O (stereo unspecified)	3.63	10%	3.6%	2.99	–	–	–	–	–	–
COC(=O)C(Cc1ccccc1)NC(=O)CCCCc1ccc2c(c1)OCO2 (stereo unspecified)	3.67	7.2%	5.5%	3.17	–	–	–	–	–	–
CCCCCCCCCCCCCCCCOP(=O)([O-])OCC[N+](C)(C)C [MILTEFOSINE]	4.74	35%	29%	4.48	–	–	–	287 mg	87%	43%
O=C(O)/C=C/C=C/c1ccc2c(c1)OCO2 [PIPERIC ACID]	3.40	8%	4.5%	2.76	–	–	–	–	–	–
O=C(/C=C/C=C/c1ccc2c(c1)OCO2)N1CCCCC1 [PIPERINE]	3.12	10%	7%	2.59	–	–	–	–	–	–
COC(=O)[C@@H](N)Cc1c[nH]c2ccccc12 [TRYPTOPHAN METHYL ESTER]	2.85	5.3%	1.8%	2.86	–	–	–	–	–	–
COC(=O)[C@@H](N)Cc1ccc(O)cc1 [TYROSINE METHYL ESTER]	2.86	5%	0.3%	2.68	–	–	–	–	–	–

From ChEMBL document CHEMBL1208686, “Synthesis and antileishmanial activity of piperoyl-amino acid conjugates” (Eur J Med Chem, 2010)
